Measured values as given in patent EP0241232A1, “Isoxazolylethanol derivatives” (SHIONOGI SEIYAKU KABUSHIKI KAISHA, priority 1986, dated 1987).
Where two headings read alike, the source gives them in different places.

Experiments:
Candida albicans KE-2 = assay: Inhibition test against pseudomycelium formation of Candida albicans; assay type: cell-based; details: KE2, minimum effective concentration preventing typical pseudomycelium formation, Eagle-MEM + 20 % calf serum, 18 hours at 37 °C, read-out: Inhibitory Concentration of Pseudo-myselium Formation
Description: Candida albicans KE-2 was inoculated to Eagle-MEM medium (Nissan 2 made by Nissui Seiyaku, Ltd.) supplemented with 20 % calf serum so that its final inoculum of yeast cell might be 1 x 10^6 yeast cells per milliliter. The test compounds were added thereon in two fold dilution series. After incubation for 18 hours at 37 °C, the fungal growth in each drug concentration was smeared and fixed on a slide glass, and the presence or absence of the pseudomycelium formation was examined by a microscope following Giemsa staining. Minimum effective concentration was defined as the lowest concentration of the compound which prevented typical pseudomycelium formation.

Rhizoctonia solani = assay: Control by seed-soaking: Rhizoctonia damping-off in cucumber; assay type: in vivo; details: 360 h, read-out: Control Index Rhizoctonia Damping-Off in Cucumber
Description: (§1) The test compound was dissolved in 0.2 ml of acetone and suspended in demineralized distilled water containing a small amount of spreader, to a concentration of 500 ppm. The suspension was further diluted to one quarter dilution with demineralized distilled water (containing a small amount of spreader) to give a suspension in 125 ppm. All seeds of oats, wheat and cucumber were soaked in these suspensions at room temperature for an hour and then the seeds were air-dried.
(§2) The seeds as described above were sown in plastic pots (diameter : 9 cm). For rust and powdery mildews, the pots were kept in a glasshouse for 1 - 3 weeks until the seeds grew to young plants. The young oats (10 - 20 plants per pot) were inoculated by dusting with spores of Puccinia coronata, and the wheat (10 - 20 plants per pot) was also inoculated by spraying with spores of Erysiphe graminis f. sp. tritici, and the cucumber (1 plant per pot) was also inoculated by spraying with spore suspension of Sphaerotheca fuliginea. These inoculated plants were further kept in a glasshouse for 10 - 14 days until assessment. For damping-off, the treated seeds were sown in paper pots (diameter : 7.5 cm; depth : 6 cm) which contained soil infested with Rhizoctonia solani by mixing sterilized soil and pre-cultured fungus. Then the pots were kept in a humid glasshouse at 25 - 32 ^*C.
(§3) Damping-off was observed 15 days after sowing, and disease degree and control effect were obtained from the following equations. [formula] [formula] where diseased seedlings included damping-off and unemerged'seeds due to infection. For the foliar diseases, disease development was observed 10 - 14 days after inoculation of spores, and control effect was obtained by the following index.

Sphaerotheca fuliginea [1] = assay: Control of cucumber powdery mildew by foliar spray; assay type: in vivo; details: observed 10 days after inoculation; for Control Index Preventive Effect: inoculation 24 hr. after application; for Control Index Curative Effect: inoculation 24 hr. before application
Description: The test compound was dissolved in a small amount of acetone and suspended in demineralized distilled water containing a spreader, to a concentration of 7.8 ppm and 2.0 ppm. Young cucumber plants (c.v. Tsukuba-Shiroibo) of 2-leaf stage grown in pots were sprayed sufficiently with the suspension.
Spores of Sphaerotheca fuliginea cultured in cucumber plants were collected and suspended in distilled water. Inoculation was made by spraying with the spore suspension to the test plant of 24 hr. after application of the test compound (preventive control) or 24 hr. before application (curative control).
Development of the disease was observed 10 days after inoculation and control index was obtained as described in Experiment 3.

Puccinia coronata = assay: Control by seed-soaking: crown rust in oats; assay type: in vivo
Description: as §1, §2, §3

Sphaerotheca fuliginea [2] = assay: Control by seed-soaking: powdery mildew in cucumber; assay type: in vivo
Description: as §1, §2, §3

[3] = test system: Erysiphe graminis f. sp. tritici; assay: Control by seed-soaking: powdery mildew in wheat; assay type: in vivo
Description: as §1, §2, §3

[4] = seed-soaking, 125 ppm, observed 15 days after sowing, control effect by equation
[5] = seed-soaking, 500 ppm, observed 15 days after sowing, control effect by equation

SMILES	minimal effective concentration (Candida albicans KE-2)	pest or weed control at 125 ppm (Rhizoctonia solani; [4])	pest or weed control at 500 ppm (Rhizoctonia solani; [5])	Control Index Preventive Effect (Sphaerotheca fuliginea [1]; foliar spray 2.0 ppm)	Control Index Curative Effect (Sphaerotheca fuliginea [1]; foliar spray 2.0 ppm)	Control Index Preventive Effect (Sphaerotheca fuliginea [1]; foliar spray 7.8 ppm)	Control Index Curative Effect (Sphaerotheca fuliginea [1]; foliar spray 7.8 ppm)	also measured
Cc1cc(C(O)(Cn2ccnc2)c2ccc(F)cc2)no1 (stereo not shown) [Ia - 13, 1-(4-Fluorophenyl)-1-(5-methylisoxazol-3-yl)-2-(1H-imidazol-1-yl)ethanol]	0.63 µg/mL							
Cc1onc(C(O)(Cn2cncn2)c2ccc(F)cc2)c1Cl (stereo not shown) [Ib - 2]	1.25 µg/mL	60%	85%					
Cc1onc(C(O)(Cn2cncn2)c2ccc(Cl)cc2)c1Cl (stereo not shown) [Ib - 1, 1-(4-Chlorophenyl)-1-(5-methyl-4-chloroisoxazol-3-yl)-2-(1H-1,2,4-triazol-1-yl)ethanol]	0.31 µg/mL	35%	88%	70 (Leaves covered with symptom between 16 % and 45 % area)	97 (Leaves covered with symptom less than 3 % area)	97 (Leaves covered with symptom less than 3 % area)	100	
Cc1cc(C(O)(Cn2cncn2)c2ccc(F)cc2)no1 (stereo not shown) [Ia - 6]	0.16 µg/mL	54%	85%					
CC(C)(C)c1cc(C(O)(Cn2cncn2)c2ccc(F)cc2F)no1 (stereo not shown) [Ia - 12]	0.31 µg/mL							
CC(C)(C)C(=O)C(Oc1ccc(Cl)cc1)n1cncn1 (stereo not shown) [Triadi-mefon, reference compound]				90 (Leaves covered with symptom between 4 % and 15 % area)	90 (Leaves covered with symptom between 4 % and 15 % area)	90 (Leaves covered with symptom between 4 % and 15 % area)	90 (Leaves covered with symptom between 4 % and 15 % area)	Control Index Crown Rust in Oats (Puccinia coronata; 125 ppm): 50 (Leaves covered with symptom between 46 % and 65 % area); Control Index Crown Rust in Oats (Puccinia coronata; 500 ppm): 97 (Leaves covered with symptom less than 3 % area); Control Index Powdery Mildew in Cucumber (Sphaerotheca fuliginea [2]; 125 ppm): 0 (Leaves covered with symptom more than 66 %); Control Index Powdery Mildew in Cucumber (Sphaerotheca fuliginea [2]; 500 ppm): 70 (Leaves covered with symptom between 16 % and 45 % area); Control Index Powdery Mildew in Wheat ([3]; 125 ppm): 90 (Leaves covered with symptom between 4 % and 15 % area); Control Index Powdery Mildew in Wheat ([3]; 500 ppm): 100; pest or weed control at 125 ppm (Rhizoctonia solani): 34%; pest or weed control at 500 ppm (Rhizoctonia solani): 49%
Cc1cc(C(O)(Cn2cncn2)c2ccc(Cl)cc2Cl)no1 (stereo not shown) [Ia - 7]	0.02 µg/mL	92%	94%	90 (Leaves covered with symptom between 4 % and 15 % area)	97 (Leaves covered with symptom less than 3 % area)	100	100	Control Index Crown Rust in Oats (Puccinia coronata; 125 ppm): 70 (Leaves covered with symptom between 16 % and 45 % area); Control Index Crown Rust in Oats (Puccinia coronata; 500 ppm): 100; Control Index Powdery Mildew in Wheat ([3]; 125 ppm): 70 (Leaves covered with symptom between 16 % and 45 % area); Control Index Powdery Mildew in Wheat ([3]; 500 ppm): 70 (Leaves covered with symptom between 16 % and 45 % area)
Cc1cc(C(O)(Cn2cncn2)c2ccccc2)no1 (stereo not shown) [Ia - 9]	0.31 µg/mL							
Cc1onc(C(O)(Cn2cncn2)c2ccccc2)c1Cl (stereo not shown) [Ib - 3]	1.25 µg/mL							
